Measurements taken from ChEMBL document CHEMBL6103622 (J Med Chem, 2025).
The source made the active and inactive calls. The calls are words filed in the database; no cut-off is given here.

Assays:
[1] = tested on: MC-38; assay: Induction of apoptosis in mouse MC38 cells cocultured with condition medium of M2 macrophages assessed as early apoptotic cells at 100 nM by Annexin V/PI staining based flow cytometric analysis (reference value: 3.16 %); format: functional
[2] = tested on: MC-38; assay: Induction of apoptosis in mouse MC38 cells cocultured with condition medium of M2 macrophages assessed as late apoptotic cells at 100 nM by Annexin V/PI staining based flow cytometric analysis (reference value: 1.66 %); format: functional
[3] = tested on: MC-38; assay: Induction of apoptosis in mouse MC38 cells assessed as early apoptotic cells at 100 nM by Annexin V/PI staining based flow cytometric analysis (reference value: 1.91 %); format: functional
[4] = tested on: MC-38; assay: Induction of apoptosis in mouse MC38 cells assessed as late apoptotic cells at 100 nM by Annexin V/PI staining based flow cytometric analysis (reference value: 0.85 %); format: functional
[5] = target: Macrophage colony-stimulating factor 1 receptor (Homo sapiens, UniProt P07333); assay: Inhibition of CSF-1R (unknown origin)
Sequence of Macrophage colony-stimulating factor 1 receptor (P07333 whole entry): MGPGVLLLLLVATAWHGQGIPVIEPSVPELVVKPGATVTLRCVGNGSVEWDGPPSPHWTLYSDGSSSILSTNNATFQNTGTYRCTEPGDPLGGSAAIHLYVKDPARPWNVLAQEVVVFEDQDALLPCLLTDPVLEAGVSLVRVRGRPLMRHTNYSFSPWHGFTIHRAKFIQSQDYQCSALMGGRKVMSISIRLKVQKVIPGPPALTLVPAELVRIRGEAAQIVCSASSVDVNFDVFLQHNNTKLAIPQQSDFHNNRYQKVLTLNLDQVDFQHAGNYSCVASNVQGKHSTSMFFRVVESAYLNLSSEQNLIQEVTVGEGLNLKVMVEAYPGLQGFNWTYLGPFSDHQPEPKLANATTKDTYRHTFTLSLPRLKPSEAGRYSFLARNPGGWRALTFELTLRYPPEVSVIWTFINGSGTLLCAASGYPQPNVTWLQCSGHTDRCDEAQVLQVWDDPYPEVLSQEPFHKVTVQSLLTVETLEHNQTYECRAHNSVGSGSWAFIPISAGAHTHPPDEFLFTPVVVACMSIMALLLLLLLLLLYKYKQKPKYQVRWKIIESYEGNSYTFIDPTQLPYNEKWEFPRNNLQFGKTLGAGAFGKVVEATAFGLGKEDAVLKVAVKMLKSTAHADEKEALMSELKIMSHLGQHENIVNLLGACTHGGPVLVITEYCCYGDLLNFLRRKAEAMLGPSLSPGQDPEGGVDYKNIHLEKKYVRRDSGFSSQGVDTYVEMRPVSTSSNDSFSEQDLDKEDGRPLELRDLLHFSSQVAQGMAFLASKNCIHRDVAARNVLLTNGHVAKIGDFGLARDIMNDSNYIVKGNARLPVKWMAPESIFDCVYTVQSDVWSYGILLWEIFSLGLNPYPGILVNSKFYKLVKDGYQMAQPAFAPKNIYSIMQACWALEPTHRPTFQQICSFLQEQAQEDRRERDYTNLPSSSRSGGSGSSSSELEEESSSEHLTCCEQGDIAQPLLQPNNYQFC

[6] = target: T1, Macrophage colony-stimulating factor 1 receptor (Mus musculus) (UniProt P09581); assay: Inhibition of CSF-1R signaling pathway activation in female C57BL/6 mouse BMDM cells assessed as reduction in CSF-1R phosphorylation at Tyr723 residue at 100 nM preincubated with compounds for 4 hrs followed by M-CSF stimulation and measured after 30 mins by Western blot analysis; format: cell-based; conditions: time 4.5 hrs
T1 sequence (whole entry): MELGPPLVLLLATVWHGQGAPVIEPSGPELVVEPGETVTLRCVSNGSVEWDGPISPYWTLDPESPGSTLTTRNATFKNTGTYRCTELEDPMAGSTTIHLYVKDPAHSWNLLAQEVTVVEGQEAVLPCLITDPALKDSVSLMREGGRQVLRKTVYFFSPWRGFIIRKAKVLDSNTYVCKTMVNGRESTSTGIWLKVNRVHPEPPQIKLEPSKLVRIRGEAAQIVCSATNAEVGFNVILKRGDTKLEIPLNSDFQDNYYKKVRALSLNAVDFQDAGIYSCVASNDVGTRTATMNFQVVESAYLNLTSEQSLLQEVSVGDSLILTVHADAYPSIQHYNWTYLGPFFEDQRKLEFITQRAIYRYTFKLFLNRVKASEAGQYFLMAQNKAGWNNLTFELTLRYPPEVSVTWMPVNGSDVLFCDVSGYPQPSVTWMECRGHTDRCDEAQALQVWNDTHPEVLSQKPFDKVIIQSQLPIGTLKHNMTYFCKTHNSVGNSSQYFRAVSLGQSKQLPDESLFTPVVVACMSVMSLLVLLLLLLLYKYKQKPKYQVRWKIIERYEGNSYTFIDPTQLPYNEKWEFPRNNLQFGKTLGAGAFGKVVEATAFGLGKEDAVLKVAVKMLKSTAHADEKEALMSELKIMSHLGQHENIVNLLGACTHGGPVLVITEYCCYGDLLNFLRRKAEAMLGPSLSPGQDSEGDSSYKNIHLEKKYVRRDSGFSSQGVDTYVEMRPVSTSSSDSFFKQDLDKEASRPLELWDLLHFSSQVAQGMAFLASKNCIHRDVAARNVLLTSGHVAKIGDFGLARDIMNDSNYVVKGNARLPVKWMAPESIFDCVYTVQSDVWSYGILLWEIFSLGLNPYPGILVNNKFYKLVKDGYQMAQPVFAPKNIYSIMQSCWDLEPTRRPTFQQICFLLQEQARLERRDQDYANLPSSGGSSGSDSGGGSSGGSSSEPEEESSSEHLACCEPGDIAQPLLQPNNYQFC

[7] = target: T1, Macrophage colony-stimulating factor 1 receptor (Mus musculus); assay: Inhibition of CSF-1R signaling pathway activation in female C57BL/6 mouse BMDM cells assessed as reduction in AKT phosphorylation at Ser473 residue at 100 nM preincubated with compounds for 4 hrs followed by M-CSF stimulation and measured after 30 mins by Western blot analysis; format: cell-based; conditions: time 4.5 hrs
[8] = target: T1, Macrophage colony-stimulating factor 1 receptor (Mus musculus); assay: Inhibition of CSF-1R signaling pathway activation in female C57BL/6 mouse BMDM cells assessed as reduction in CSF-1R phosphorylation at 100 nM preincubated with compounds for 4 hrs followed by M-CSF stimulation and measured after 30 mins by Western blot analysis; format: cell-based; conditions: time 4.5 hrs

Compound | IC50 [5] | further results
FC(F)(F)c1ccc(CNc2ccc(Cc3c[nH]c4ncc(Cl)cc34)cn2)cn1 [PEXIDARTINIB] | – | Activity [1]: 8.49%; Activity [2]: 2.25%; Activity [3]: 1.8%; Activity [4]: 0.83%
OC[C@H](Nc1nc2ccc(Oc3c[nH]c4ncc(Cl)cc34)cc2s1)C1CCCCC1 | > 1 µM | –
COc1cc(NC(=O)Nc2ccc(Oc3c[nH]c4ncc(Cl)cc34)c(C)n2)ccc1C(F)(F)F | 0.131 µM | –
Cc1nc(NC(=O)NCc2ccc(C(F)(F)F)nc2)ccc1Oc1c[nH]c2ncc(Cl)cc12 | 0.406 µM | –
COc1cc(NC(=O)Nc2ccc(Oc3c[nH]c4ncc(Cl)cc34)c(C)n2)cc(OC)c1OC | 0.0238 µM | inhibition [6]: Active; Minimal Effect Observed; inhibition [7]: Active; Minimal Effect Observed
Cc1nc(NC(=O)Nc2ccc(C(C)(C)C)c(Cl)c2)ccc1Oc1c[nH]c2ncc(Cl)cc12 | > 1 µM | –
O[C@@H]1CCCC[C@H]1Nc1nc2ccc(Cc3c[nH]c4ncc(Cl)cc34)cc2s1 | 0.0494 µM | inhibition [8]: Active; Weak Inhibitory Effect Observed
O[C@@H]1CCCC[C@H]1Nc1nc2ccc(Oc3c[nH]c4ncc(Cl)cc34)cc2s1 | 0.0258 µM | inhibition [8]: Active; Weak Inhibitory Effect Observed
Cc1nc(NC(=O)Nc2ccc(C(F)(F)F)nc2)ccc1Oc1c[nH]c2ncc(Cl)cc12 | 0.152 µM | –
O[C@@H]1CCCC[C@H]1Nc1nc2ccc(Oc3c[nH]c4ncc(F)cc34)cc2s1 | 0.0306 µM | inhibition [8]: Active; Weak Inhibitory Effect Observed
Cc1nc(NC(=O)Nc2ccc(F)cc2)ccc1Oc1c[nH]c2ncc(Cl)cc12 | 0.0856 µM | –
O[C@@H]1CCCC[C@H]1Nc1nc2ccc(Oc3c[nH]c4nccc(F)c34)cc2s1 | 0.0414 µM | –
Cc1nc(NC(=O)Nc2ccc(C(F)(F)F)cc2)ccc1Oc1c[nH]c2ncc(Cl)cc12 | 0.0489 µM | –
Cc1nc(NC(=O)Nc2cccc(C(F)(F)F)c2)ccc1Oc1c[nH]c2ncc(Cl)cc12 | 0.372 µM | –
Cc1nc(NC(=O)Nc2ccc(N3CCN(C)CC3)cc2)ccc1Oc1c[nH]c2ncc(Cl)cc12 | 0.593 µM | –
O=C(Nc1ccc(Oc2c[nH]c3ncc(Cl)cc23)cc1)N[C@@H]1CCCC[C@H]1O | 0.0435 µM | –
Cc1nc(NC(=O)Nc2cc(C(C)(C)C)no2)ccc1Oc1c[nH]c2ncc(Cl)cc12 | > 1 µM | –
Cc1nc(NC(=O)Nc2cccc(Cl)c2)ccc1Oc1c[nH]c2ncc(Cl)cc12 | 0.0346 µM | inhibition [6]: Active; Minimal Effect Observed; inhibition [7]: Active; Minimal Effect Observed
FC(F)(F)c1ccc(Nc2nc3ccc(Oc4c[nH]c5ncc(Cl)cc45)cc3s2)cc1 | 0.0565 µM | –
